Measured values taken from article PMC9363231, “High‐resolution analysis of individual spike peptide‐specific CD4 ^+ T‐cell responses in vaccine recipients and COVID‐19 patients” (Clinical & Translational Immunology, 2022).

Legend:
Experiment in all cases: biochemical
Assay type in all cases: binding
HLA-DRB1*01:01 = HLA-DRB1*01:01 (Homo sapiens, UniProt P01903+P01911, A100R/D57E/F55L/F60I/F76Y/I96L/L162R/M171V/P40L/Q125E/R42F/V115G/Y59C)
HLA-DRB1*03:01 = HLA-DRB1*03:01 (Homo sapiens, UniProt P01903+P01911, A100K/A102G/A103R/A169T/F55Y/I96L/K41T/L162R/M171V/P40S/Q125H/Q178H/Q39Y/R42S/S66N/T106N/T262R/W38E/Y61H)
HLA-DRB1*04:01 = HLA-DRB1*04:01 (Homo sapiens, UniProt P01903+P01911, A100K/A169T/F76Y/I96L/K127E/L162R/M171V/N62H/P40V/Q125Y/R42H/S133A/S149N/S66Y/V115G/V209L/W38E)
HLA-DRB1*04:05 = HLA-DRB1*04:05 (Homo sapiens, UniProt P01903+P01911, A100R/A169T/D86S/F76Y/I96L/K127E/L162R/M171V/N62H/P40V/Q125Y/R42H/S133A/S149N/S66Y/V115G/V209L/W38E)
HLA-DRB1*07:01 = HLA-DRB1*07:01 (Homo sapiens, UniProt P01903+P01911, A100R/A102G/A103Q/D57E/D86V/E43K/F76Y/K127E/L162R/M171V/P40G/Q125H/Q99D/R33Q/R42Y/R54Q/S133A/S66F/T210M/V115G/Y107V/Y59L/Y89S)
HLA-DRB1*08:02 = HLA-DRB1*08:02 (Homo sapiens, UniProt P01903+P01911, A100R/A103L/A169T/F76Y/H45Y/I96F/K41T/L162R/M171V/P40S/Q125H/Q178H/Q39Y/Q99D/R218S/R42G/S66Y/V115G/W38E)
HLA-DRB1*09:01 = HLA-DRB1*09:01 (Homo sapiens, UniProt P01903+P01911, A100R/A103E/D57H/D86V/F55Y/F60I/F76Y/I96F/K127E/L162R/M171V/P40D/Q125H/Q99R/R33Q/R42F/S133A/S66N/T210M/V115G/W38K/Y107V/Y59G/Y89S)
HLA-DRB1*11:01 = HLA-DRB1*11:01 (Homo sapiens, UniProt P01903+P01911, A100R/A169T/A87E/I96F/K41T/L162R/M171V/P40S/Q125H/Q178H/Q39Y/Q99D/R42S/S66Y/T262R/V115G/W38E)
HLA-DRB1*12:01 = HLA-DRB1*12:01 (Homo sapiens, UniProt P01903+P01911, A100R/A169T/D57E/D86V/F55L/H45Y/K41T/L162R/M171V/P40S/Q125H/Q178H/Q39Y/Q99D/R42G/S66L/T262R/V114A/V67L/W38E/Y59H/Y61H/Y89S)
HLA-DRB1*13:02 = HLA-DRB1*13:02 (Homo sapiens, UniProt P01903+P01911, A100E/A169T/K41T/L162R/M171V/P40S/Q125H/Q178H/Q39Y/Q99D/R42S/S66N/T262R/V115G/W38E/Y61H)
HLA-DRB1*15:01 = HLA-DRB1*15:01 (Homo sapiens, UniProt P01903+P01911)

Chain of HLA-DRB1*03:01 (P01903 26-254, other chains not shown): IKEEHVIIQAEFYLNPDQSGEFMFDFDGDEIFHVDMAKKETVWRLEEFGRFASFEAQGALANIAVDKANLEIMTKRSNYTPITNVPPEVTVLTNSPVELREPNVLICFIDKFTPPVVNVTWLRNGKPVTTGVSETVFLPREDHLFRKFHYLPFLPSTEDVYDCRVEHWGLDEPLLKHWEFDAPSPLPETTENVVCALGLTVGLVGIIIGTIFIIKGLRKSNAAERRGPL
Chain of HLA-DRB1*11:01 (P01903 26-254 limits assumed, other chains not shown): as the sequence (P01903 26-254, other chains not shown) above
Chain of HLA-DRB1*13:02 (P01903 26-254 limits assumed, other chains not shown): as the sequence (P01903 26-254, other chains not shown) above

| Compound | IC50 (HLA-DRB1*01:01) | IC50 (HLA-DRB1*03:01) | IC50 (HLA-DRB1*04:01) | IC50 (HLA-DRB1*04:05) | IC50 (HLA-DRB1*07:01) | IC50 (HLA-DRB1*08:02) | IC50 (HLA-DRB1*09:01) | IC50 (HLA-DRB1*11:01) | IC50 (HLA-DRB1*12:01) | IC50 (HLA-DRB1*13:02) | IC50 (HLA-DRB1*15:01) |
| --- | --- | --- | --- | --- | --- | --- | --- | --- | --- | --- | --- |
| CC[C@H](C)[C@H](NC(=O)[C@H](CCCNC(=N)N)NC(=O)[C@H](CCCCN)NC(=O)[C@H](CCCNC(=N)N)NC(=O)[C@H](CC(N)=O)NC(=O)[C@H](Cc1c[nH]c2ccccc12)NC(=O)[C@H](C)NC(=O)[C@H](Cc1ccc(O)cc1)NC(=O)[C@@H](NC(=O)[C@H](CO)NC(=O)[C@H](C)NC(=O)[C@H](Cc1ccccc1)NC(=O)[C@@H](N)CCCNC(=N)N)C(C)C)C(=O)N[C@@H](CO)C(=O)N[C@@H](CC(N)=O)C(=O)O [compound 70] | 5930 nM | > 40000 nM | 7890 nM | 6270 nM | 540 nM | 64 nM | 1380 nM | 3.9 nM | 31600 nM | > 40000 nM | 136 nM |
| CC(C)C[C@H](NC(=O)[C@H](CCCNC(=N)N)NC(=O)[C@H](Cc1ccc(O)cc1)NC(=O)[C@H](CC(C)C)NC(=O)[C@@H](N)Cc1ccc(O)cc1)C(=O)N[C@@H](Cc1ccccc1)C(=O)N[C@@H](CCCNC(=N)N)C(=O)N[C@@H](CCCCN)C(=O)N[C@@H](CO)C(=O)N[C@@H](CC(N)=O)C(=O)N[C@@H](CC(C)C)C(=O)N[C@@H](CCCCN)C(=O)N1CCC[C@H]1C(=O)N[C@@H](Cc1ccccc1)C(=O)N[C@@H](CCC(=O)O)C(=O)O [peptide 91] | 7360 nM | > 40000 nM | 590 nM | 543 nM | 575 nM | 23 nM | 13 nM | 4.2 nM | 323 nM | 8570 nM | 1.7 nM |
| CC[C@H](C)[C@H](NC(=O)CN)C(=O)N[C@@H](Cc1ccc(O)cc1)C(=O)N[C@@H](CCC(N)=O)C(=O)N[C@H](C(=O)N[C@@H](CO)C(=O)N[C@@H](CC(N)=O)C(=O)N[C@@H](Cc1ccccc1)C(=O)N[C@@H](CCCNC(=N)N)C(=O)N[C@H](C(=O)N[C@@H](CCC(N)=O)C(=O)N1CCC[C@H]1C(=O)N[C@H](C(=O)N[C@@H](CCC(=O)O)C(=O)N[C@@H](CO)C(=O)O)[C@@H](C)O)C(C)C)[C@@H](C)O [compound 63] | 2390 nM | > 40000 nM | 62 nM | 201 nM | 12 nM | > 40000 nM | 305 nM | 1140 nM | 2070 nM | 10700 nM | 21 nM |
| CC[C@H](C)[C@H](NC(=O)[C@H](Cc1ccccc1)NC(=O)[C@@H](N)CO)C(=O)N[C@@H](CCC(=O)O)C(=O)N[C@@H](CC(=O)O)C(=O)N[C@@H](CC(C)C)C(=O)N[C@@H](CC(C)C)C(=O)N[C@@H](Cc1ccccc1)C(=O)N[C@@H](CC(N)=O)C(=O)N[C@@H](CCCCN)C(=O)N[C@H](C(=O)N[C@H](C(=O)N[C@@H](CC(C)C)C(=O)N[C@@H](C)C(=O)N[C@@H](CC(=O)O)C(=O)O)[C@@H](C)O)C(C)C [peptide 164] | 4350 nM | 3230 nM | 1100 nM | 2170 nM | 3960 nM | 15200 nM | 1300 nM | 13200 nM | 537 nM | 174 nM | 3170 nM |
| CSCC[C@H](NC(=O)[C@H](CC(C)C)NC(=O)[C@H](Cc1ccccc1)NC(=O)[C@@H]1CCCN1C(=O)[C@H](CCC(N)=O)NC(=O)[C@H](CO)NC(=O)[C@@H](NC(=O)[C@H](Cc1ccc(O)cc1)NC(=O)[C@H](CCC(=O)O)NC(=O)[C@H](Cc1ccccc1)NC(=O)[C@@H](NC(=O)[C@@H](N)CS)[C@@H](C)O)C(C)C)C(=O)N[C@@H](CC(=O)O)C(=O)N[C@@H](CC(C)C)C(=O)N[C@@H](CCC(=O)O)C(=O)O [peptide 34] | 495 nM | 5860 nM | 1150 nM | 16 nM | – | 1470 nM | – | 3380 nM | 416 nM | – | 7240 nM |
